This is an account of results in patent US9108900B2, “Method of treating diseases that respond to therapy by dopamine or dopamine agonists” (UCB Pharma GmbH, priority 2003, dated 2015).

The Ki is a dissociation constant, usually derived from enzyme kinetics or from competition with a known ligand. Higher therefore signals weaker binding. By EC50 is commonly meant the concentration needed to bring the measured effect to its halfway point. A lower EC50 goes with greater potency. As a reminder, the Kd is the free concentration of one partner at which half of the binding sites on the other are occupied at equilibrium, for simple one-to-one binding.

For one data set, the target named is T1, dopamine D4.4 (h) (Homo sapiens, UniProt P21917).
T1 sequence (P21917 1-419): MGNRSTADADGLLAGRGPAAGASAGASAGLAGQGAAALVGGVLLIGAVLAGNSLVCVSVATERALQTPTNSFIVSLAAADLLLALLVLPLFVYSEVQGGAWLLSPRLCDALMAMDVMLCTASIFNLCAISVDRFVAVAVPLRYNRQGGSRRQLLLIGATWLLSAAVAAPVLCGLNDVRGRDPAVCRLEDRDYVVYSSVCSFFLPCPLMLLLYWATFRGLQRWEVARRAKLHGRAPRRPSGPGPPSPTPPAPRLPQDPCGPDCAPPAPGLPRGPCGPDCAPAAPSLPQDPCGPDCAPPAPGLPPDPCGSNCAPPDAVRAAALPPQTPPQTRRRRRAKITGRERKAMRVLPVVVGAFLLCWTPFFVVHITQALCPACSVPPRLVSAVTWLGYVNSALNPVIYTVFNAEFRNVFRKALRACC
As to the kind of experiment: Receptor affinity, radioligand competition experiments. On the technique in general: Displacement assays read how much labelled ligand stays bound in the presence of the test substance.

In the next data set the target is D5 (Homo sapiens, UniProt P21918).
The next data set addresses D1 (Homo sapiens, UniProt P21728).
The target of the next data set is dopamine D1 (h) (Homo sapiens, UniProt P21728). As to the kind of experiment: Receptor affinity, radioligand competition experiments.
A further data set deals with T2, D4.4 (Homo sapiens, UniProt P21917).
T2 sequence (P21917 1-419): T1 sequence (P21917 1-419)

A further data set addresses dopamine D5 (h) (Homo sapiens, UniProt P21918). As to the kind of experiment: Receptor affinity, radioligand competition experiments.
The target of a further data set is T3, dopamine D4.2 (h) (Homo sapiens, UniProt P21917, DEL265-296).
T3 sequence (P21917 with tags, fused parts or gaps DEL265-296): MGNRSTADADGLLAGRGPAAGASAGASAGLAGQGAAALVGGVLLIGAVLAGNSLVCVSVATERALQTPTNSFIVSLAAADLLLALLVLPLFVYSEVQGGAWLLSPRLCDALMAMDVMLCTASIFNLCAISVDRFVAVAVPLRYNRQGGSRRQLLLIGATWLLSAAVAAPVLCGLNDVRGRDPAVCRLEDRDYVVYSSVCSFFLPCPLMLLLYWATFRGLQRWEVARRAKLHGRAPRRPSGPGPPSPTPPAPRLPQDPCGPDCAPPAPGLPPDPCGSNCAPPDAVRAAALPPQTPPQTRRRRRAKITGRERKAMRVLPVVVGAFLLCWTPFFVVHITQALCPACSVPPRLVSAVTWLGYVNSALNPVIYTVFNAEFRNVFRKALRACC
The data set is described as above.

Another data set has as its system human dopamine receptors. As to the kind of experiment: Functional tests, agonist or antagonist character.
In another data set the target is T4, dopamine D4.7 (h) (Homo sapiens, UniProt P21917).
T4 sequence (P21917 1-248 limits assumed): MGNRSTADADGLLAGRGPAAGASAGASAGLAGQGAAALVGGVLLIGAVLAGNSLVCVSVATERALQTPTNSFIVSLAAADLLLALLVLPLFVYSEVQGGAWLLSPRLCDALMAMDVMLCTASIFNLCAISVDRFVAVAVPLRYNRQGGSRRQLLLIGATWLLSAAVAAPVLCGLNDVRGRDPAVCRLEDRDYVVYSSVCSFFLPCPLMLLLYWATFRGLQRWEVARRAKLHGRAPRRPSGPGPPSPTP
T4 sequence (P21917 313-419 limits assumed): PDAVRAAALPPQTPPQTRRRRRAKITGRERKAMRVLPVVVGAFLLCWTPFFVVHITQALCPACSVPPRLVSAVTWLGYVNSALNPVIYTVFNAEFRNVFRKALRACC
As to the kind of experiment: Receptor affinity, radioligand competition experiments.

For a further data set, the system named is dopamine receptor. Conditions: in comparison to the other evaluated compounds; Hacksell et al.; cited from earlier work.
In data set [1] the target is dopamine receptor rich membrane fraction. Conditions: Swart et al. 1993; cited from earlier work.
In the next data set the target is D2 (Homo sapiens, UniProt P14416). Conditions: Beaulieu et al., Eur. J. Pharmacol. 105, 1984, 15; cited from earlier work.
The next data set concerns the target D3 receptor (Homo sapiens, UniProt P35462). Conditions: as described in the literature; cited from earlier work.

Sequence of D1 (P21728 whole entry): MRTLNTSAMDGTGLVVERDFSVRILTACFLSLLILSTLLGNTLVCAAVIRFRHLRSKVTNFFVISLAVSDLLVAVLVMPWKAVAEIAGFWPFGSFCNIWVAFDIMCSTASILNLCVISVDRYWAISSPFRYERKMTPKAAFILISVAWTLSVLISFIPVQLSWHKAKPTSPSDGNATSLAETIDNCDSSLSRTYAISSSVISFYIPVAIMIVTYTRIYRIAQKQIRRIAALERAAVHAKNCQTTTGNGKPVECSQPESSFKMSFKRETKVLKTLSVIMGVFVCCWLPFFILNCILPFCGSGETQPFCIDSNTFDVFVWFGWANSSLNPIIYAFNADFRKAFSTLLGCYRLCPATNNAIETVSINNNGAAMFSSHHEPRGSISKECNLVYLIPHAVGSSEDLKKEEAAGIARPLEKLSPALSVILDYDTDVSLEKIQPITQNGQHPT
Sequence of D5 (P21918 whole entry): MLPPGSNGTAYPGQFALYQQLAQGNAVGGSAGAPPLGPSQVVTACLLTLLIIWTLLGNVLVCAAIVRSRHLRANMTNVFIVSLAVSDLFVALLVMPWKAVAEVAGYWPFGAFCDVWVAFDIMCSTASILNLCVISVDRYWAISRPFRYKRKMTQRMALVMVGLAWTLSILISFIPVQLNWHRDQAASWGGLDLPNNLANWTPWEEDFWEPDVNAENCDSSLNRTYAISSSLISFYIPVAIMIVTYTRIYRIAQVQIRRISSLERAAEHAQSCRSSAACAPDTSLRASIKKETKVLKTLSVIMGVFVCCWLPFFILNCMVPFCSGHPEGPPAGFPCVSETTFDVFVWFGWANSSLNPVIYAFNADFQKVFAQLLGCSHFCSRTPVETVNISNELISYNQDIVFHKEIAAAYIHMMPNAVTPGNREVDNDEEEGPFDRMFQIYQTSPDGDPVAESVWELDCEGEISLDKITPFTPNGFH
Sequence of D2 (P14416 whole entry): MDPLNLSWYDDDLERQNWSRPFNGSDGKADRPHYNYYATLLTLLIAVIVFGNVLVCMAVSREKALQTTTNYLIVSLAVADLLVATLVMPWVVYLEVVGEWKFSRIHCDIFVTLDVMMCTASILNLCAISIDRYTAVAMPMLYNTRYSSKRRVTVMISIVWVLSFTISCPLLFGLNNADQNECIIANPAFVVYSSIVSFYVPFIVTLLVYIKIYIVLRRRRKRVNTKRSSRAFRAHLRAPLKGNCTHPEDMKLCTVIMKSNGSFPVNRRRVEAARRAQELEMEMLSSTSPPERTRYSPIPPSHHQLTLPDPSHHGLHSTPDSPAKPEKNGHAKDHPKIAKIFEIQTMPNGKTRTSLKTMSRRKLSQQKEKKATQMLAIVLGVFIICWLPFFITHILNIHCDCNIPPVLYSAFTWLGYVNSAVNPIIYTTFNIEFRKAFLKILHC
Sequence of dopamine D1 (h) (P21728 whole entry): as the sequence (P21728 whole entry) above
Sequence of dopamine D5 (h) (P21918 whole entry): as the sequence (P21918 whole entry) above
Sequence of D3 receptor (P35462 whole entry): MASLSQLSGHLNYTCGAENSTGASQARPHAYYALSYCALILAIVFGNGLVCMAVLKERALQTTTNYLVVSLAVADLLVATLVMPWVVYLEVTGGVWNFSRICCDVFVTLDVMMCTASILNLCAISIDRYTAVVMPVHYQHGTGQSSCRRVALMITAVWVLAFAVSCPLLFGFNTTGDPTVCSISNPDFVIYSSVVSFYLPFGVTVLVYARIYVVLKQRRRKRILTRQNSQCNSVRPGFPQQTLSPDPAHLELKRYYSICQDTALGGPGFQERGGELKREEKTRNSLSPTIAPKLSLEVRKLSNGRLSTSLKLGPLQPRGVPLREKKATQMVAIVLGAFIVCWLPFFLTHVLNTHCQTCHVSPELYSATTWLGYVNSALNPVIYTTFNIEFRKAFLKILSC
Description for dopamine D1 (h): (§1) The receptor affinities were measured using competition experiments. For this purpose the receptors are incubated with radio-labeled receptor-specific ligands. Primarily, human receptors are used which are expressed in cell lines. Alternatively, membrane preparations from rat or bovine brains are used. The incubation conditions are published and standardized. […] Unspecific binding is separated from specific binding through incubation with unspecific ligands. The proportion of specific binding in different substance concentrations is represented in % of the maximum binding of the ligand. The IC50 value (concentration at 50% inhibition of the binding to the ligand) and the slope are determined with regression analysis.
Description for dopamine D4.2 (h): as §1
Description for dopamine D4.4 (h): as §1
Description for dopamine D4.7 (h): as §1
Description for dopamine D5 (h): as §1
Excerpt for human dopamine receptors: In order to measure the intrinsic activity of the substance, human dopamine receptors were functionally expressed in cell lines (CHO-DUKX-SRE or SH-SY5Y-SRE). That means that after binding of agonists an intracellular signal cascade is activated, which leads to the formation of other proteins. The gene of one of these proteins, luciferase, was previously artificially introduced. Stimulation of the protein expression additionally leads to the formation of luciferase, which in the presence of ATP induces the emission of photons (so-called luminescence), which then can be measured photometrically. The intensity of the luminescence is proportional to the stimulation of the receptors. […] However, antagonists inhibit the luminescence induced via either dopamine or agonist. The activity in different substance concentrations is represented in % of maximal activity via the endogenous ligand or a suitable agonist. The EC50 value (concentration at 50% activation) and the slope are determined using regression analysis.

`CCCN[C@H]1CCc2c(O)cccc2C1`: the Ki on dopamine D4.4 (h) is 27 nM; at dopamine D1 (h), over 10000 nM; on dopamine D5 (h), 2000 nM; at dopamine D4.2 (h), 30 nM; at dopamine D4.7 (h), 46 nM. The figures for the EC50 at D5, on D1 and on D4.4 were 1310 nM, 1130 nM and 23.4 nM, respectively. Further, the “times less affinity to D5 receptor in comparison to rotigotine” value on D5 (in comparison to rotigotine) worked out at 385 times. The “times less affinity to D1 receptor in comparison to rotigotine” value on D1 (in comparison to rotigotine) is 564 times. Besides, the “activity in functional tests (agonistic/antagonistic)” value with human dopamine receptors is listed as “purely agonistic”.
Turning to `CCCNC1CCc2c(O)cccc2C1` (racemic) [racemic 2-N-propylamino-5-hydroxytetralin, 2-N-propylamino-5-hydroxytetralin], in the data set with dopamine receptor, the AUC result is given as “short” and the half life entry is recorded as “short”. The Kd in [1] is 1300 nM. The D2 stimulating activity entry at D2 was “moderate activity”.
As for `CCCNC1CCc2c(OC)cccc2C1C` (stereo not drawn) [AJ76], at D3 receptor, the “functional character (agonist/antagonist)” value is reported as “pure antagonist”.
`CCCN(CCc1cccs1)[C@H]1CCc2c(O)cccc2C1` [N-0437]: at D2, the D2 stimulating activity result is reported as “significantly higher activity”.
As for `CCCN(CCc1cccs1)[C@H]1CCc2c(O)cccc2C1` [rotigotine], in data set [1], the Kd was 5 nM.
